Publication PMC10935581 (Biochemistry, 2023)
“Also recorded” adds a separate entry of the source. Where two headings read alike, the source gives them in different places. Each block holds one compound with its values, some of them ahead of it.

Columns and labels:
NAMPT [1] = biological target: T1, NAMPT (Homo sapiens, UniProt P43490); conditions: cited from earlier work
NAMPT [2] = biological target: T1, NAMPT; assay: Coupled primary NAMPT enzyme assay; type: biochemical; conditions: for HTS outcome (increase of NAMPT enzyme activity): screen of ChemDiv and Microsource Spectrum libraries
NAMPT [3] = biological target: T1, NAMPT; assay: Fluorescence polarization binding assay
NAMPT [4] = biological target: T1, NAMPT; assay: Uncoupled ATPase reaction of NAMPT; type: biochemical; conditions: absence of PRPP
[5] = test system: THP-1 human leukemic monocyte cell line; assay: Cellular NAD+ by miniaturized NADglo assay; type: cell-based; conditions: 24 h incubation
NAMPT [6] = biological target: T1, NAMPT; assay: Orthogonal NAMPT endpoint assay; type: biochemical

T1 sequence (P43490 whole entry): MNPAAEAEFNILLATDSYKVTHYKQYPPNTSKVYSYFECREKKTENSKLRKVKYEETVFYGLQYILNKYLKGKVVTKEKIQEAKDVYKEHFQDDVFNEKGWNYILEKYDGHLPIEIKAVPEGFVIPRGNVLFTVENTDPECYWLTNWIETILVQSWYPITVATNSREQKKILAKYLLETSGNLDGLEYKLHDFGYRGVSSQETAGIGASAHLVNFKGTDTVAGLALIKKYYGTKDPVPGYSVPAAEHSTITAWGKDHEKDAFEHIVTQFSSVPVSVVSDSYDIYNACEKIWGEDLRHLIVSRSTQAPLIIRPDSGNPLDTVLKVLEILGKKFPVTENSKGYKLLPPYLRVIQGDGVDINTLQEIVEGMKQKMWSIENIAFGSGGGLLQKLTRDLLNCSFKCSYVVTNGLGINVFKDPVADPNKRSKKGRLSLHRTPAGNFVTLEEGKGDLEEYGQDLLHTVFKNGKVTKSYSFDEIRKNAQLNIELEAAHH

SMILES: Nc1ncnc2c1ncn2[C@@H]1O[C@H](COP(=O)(O)OP(=O)(O)OP(=O)(O)O)[C@@H](O)[C@H]1O [ATP]
Km (NAMPT [1]; read-out: KM(ATP)): 7 mM

SMILES: O=c1c(O)c(-c2ccc(O)c(O)c2)oc2cc(O)cc(O)c12 [quercitin]
NAMPT activation in primary assay (NAMPT [2]; at ≤ 40 μM): devoid of activity

Km (NAMPT [2]; read-out: Apparent KM for NAM, no activator): ~0.000145 mM
SMILES: NC(=O)c1cccnc1 [NAM, nicotinamide]

HTS outcome (increase of NAMPT enzyme activity) (NAMPT [2]): validated hits
SMILES: COc1ccc(CC(=O)c2ccc(O)cc2O)cc1 [onenetin]

SMILES: C[C@@H]1O[C@@H](Oc2c(-c3ccc(O)c(O)c3)oc3cc(O)cc(O)c3c2=O)[C@H](O)[C@H](O)[C@H]1O [quercitrin]
Maximal activation of NAMPT relative to vehicle control (NAMPT [2]): high activation at higher concentrations | Effect on KM(ATP) (NAMPT [2]; rate increased): without significant effect | HTS outcome (increase of NAMPT enzyme activity) (NAMPT [2]): validated hits | Binding to NAMPT (in words) (NAMPT [3]): weak binding NAMPT ligand | Kd (NAMPT [3]): 16 µM | Effect on uncoupled ATP consumption (NAMPT [4]): increase uncoupled ATP consumption | Effect on cellular NAD+ (in words) [5]: inactive in cells | Effect on cellular NAD+ (in words) ([5]; listed as Quercitrin): inactive

SMILES: COc1cccc(NCC(F)Cn2c3ccc(Br)cc3c3cc(Br)ccc32)c1 (stereo not drawn) [P7C3-A20]
Binding to NAMPT (in words) (NAMPT [3]): did not show any NAMPT binding activity

SMILES: NC(=O)c1ccc[n+]([C@@H]2O[C@H](COP(=O)([O-])OP(=O)(O)OC[C@H]3O[C@@H](n4cnc5c(N)ncnc54)[C@H](O)[C@@H]3O)[C@@H](O)[C@H]2O)c1 [NAD^+, Nicotinamide adenine dinucleotide]
Ki (NAMPT [1]; read-out: KI for inhibition of NAMPT activity): 2 µM

HTS outcome (increase of NAMPT enzyme activity) (NAMPT [2]): validated hits
SMILES: C/C=C(/C(=C/C)c1ccc(O)cc1)c1ccc(O)cc1 [dienestrol]

SMILES: O=c1c(-c2ccc(O)cc2)coc2cc(O)cc(O)c12 [genestein]
HTS outcome (increase of NAMPT enzyme activity) (NAMPT [2]): validated hits

NAMPT activity relative to vehicle control (NAMPT [6]; ATP 4 mM, NAM 3 or 300 μM, PRPP 40 μM): Inhibition of NAMPT activity | NAMPT activation (NAMPT [6]; Fig. 2D): confirmed to activate NAMPT | KI(ATP) in presence of activator (NAMPT [6]; left-shifted): < 1000 µM
SMILES: O=C(NCc1ccncc1)Nc1ccc(S(=O)(=O)N2CC3CCC(C2)O3)cc1 [SBI-0797812]
Effect on ATP dependence of NAMPT (KM(ATP), KI(ATP)) (NAMPT [6]): significant left-shift in KM(ATP); also recorded: dramatic left-shift in both KM and KI for ATP | Effect on cellular NAD+ (in words) [5]: reducing cellular levels of NAD^+; also recorded: inhibited both NAMPT activity and NAD^+ formation in THP-1 cells
